Structures are written as SMILES. Structures can show the parent of a compound that is named as a salt.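 Exposure lasted 48 hours, with cells grown in 96-well plates and compounds tested at five concentrations. GI50 marks 50% less growth.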 Activity calls are given as the source filed them. Rule as the data show it: active = GI50 up to about 1.1 µM and inactive = higher. Where a SMILES comes first, the peptide text is derived from it. The star is where a group is joined. Boc = CC(C)(C)OC(=O)*; OBn = c1ccc(CO*)cc1

Among the test systems are Hs-578T; BT-549; SK-MEL-28; SNB-19; NCI-H23; EKVX; HCT-15; SW-620; HCC 2998; SF-295; DU-145; RPMI-8226; TK-10; MCF7; NCI-H522; U-251; HOP-92; COLO 205; SF-268; MOLT-4.
Holding throughout (assay): NCI anticancer screen, dose series, 48 h

Turning to `O=[N+]([O-])c1cc(-[n+]2cc([O-])on2)ccc1Cl`, the GI50 is 13.6 µM (inactive) in the experiment with Hs-578T; 19.9 µM (inactive) in the experiment on BT-549; 16.1 µM (inactive) in the experiment with SK-MEL-28; 14.2 µM (inactive) in the experiment with SNB-19; 13.7 µM (inactive) in the experiment with NCI-H23; 19 µM (inactive) in the experiment on EKVX. Moreover, the GI50 with HCT-15 was 20.7 µM; in the experiment on SW-620, 13.4 µM (inactive); in the experiment on HCC 2998, 18.1 µM (inactive); with SF-295, 23.7 µM (inactive); with DU-145 it was 16.9 µM (inactive); in the experiment on RPMI-8226, 24.3 µM (inactive). Besides, the GI50 was 18.6 µM (inactive) in the experiment with TK-10; 19.4 µM (inactive) with MCF7; 17.8 µM (inactive) with NCI-H522; 17 µM (inactive) in the experiment with U-251; 19.2 µM (inactive) in the experiment on HOP-92; 27.7 µM (inactive) in the experiment with COLO 205. Moreover, the GI50 in the experiment on SF-268 is 22.2 µM (inactive).
Consider `CC(C)Cn1cnc2c(SCc3ccccn3)nc(N)nc21`, for which the GI50 with Hs-578T, with BT-549, in the experiment with SK-MEL-28, in the experiment on SNB-19, with NCI-H23 and in the experiment on EKVX was > 100 µM (inactive) each time. For the same compound, the GI50 is greater than 100 µM with HCT-15; > 100 µM (inactive) in the experiment with SW-620; > 100 µM (inactive) with HCC 2998; > 100 µM (inactive) in the experiment on SF-295; > 100 µM (inactive) with DU-145; > 100 µM (inactive) with RPMI-8226. Further, the GI50 in the experiment with TK-10, in the experiment on MCF7, in the experiment with NCI-H522, in the experiment with U-251, with HOP-92 and in the experiment on COLO 205 was > 100 µM (inactive) in each case. In addition, the GI50 in the experiment with SF-268 was > 100 µM (inactive).
Regarding `O=S1(=O)c2ccccc2C(Nc2ccccc2)N1c1ccccc1` (stereo not given), the GI50 is > 100 µM (inactive) with Hs-578T; 58.9 µM (inactive) in the experiment with BT-549; > 100 µM (inactive) in the experiment with SK-MEL-28; > 100 µM (inactive) in the experiment with NCI-H23; > 100 µM (inactive) in the experiment with EKVX; 48 µM in the experiment on HCT-15. Moreover, the GI50 in the experiment on SW-620 is > 100 µM (inactive); in the experiment with HCC 2998, > 100 µM (inactive); with SF-295, > 100 µM (inactive); in the experiment on DU-145, > 100 µM (inactive); in the experiment with MOLT-4 it was 50.4 µM (inactive); in the experiment with RPMI-8226 it was > 100 µM (inactive). For the same compound, the GI50 in the experiment with TK-10 was > 100 µM (inactive); in the experiment with MCF7 it was > 100 µM (inactive); in the experiment with NCI-H522, 24.7 µM (inactive); in the experiment on U-251 it was 61 µM (inactive); in the experiment on HOP-92, 38.5 µM (inactive); in the experiment with SF-268, > 100 µM (inactive).
With `C=C1CC(OC(C)=O)/C=C(/C)CCC(C(C)(C)O)CC1O` (stereo not given), the GI50 in the experiment with Hs-578T, in the experiment on BT-549, in the experiment with SK-MEL-28, in the experiment on SNB-19, in the experiment on NCI-H23 and in the experiment with EKVX was > 100 µM (inactive) each time. The GI50 in the experiment with HCT-15 was greater than 100 µM; in the experiment on SW-620, > 100 µM (inactive); with HCC 2998 it was > 100 µM (inactive); with SF-295 it was > 100 µM (inactive); in the experiment on DU-145 it was > 100 µM (inactive); in the experiment on MOLT-4, > 100 µM (inactive). Also, the GI50 with TK-10, in the experiment with MCF7, in the experiment with NCI-H522, in the experiment with U-251, in the experiment with HOP-92 and with COLO 205 was > 100 µM (inactive) in each case. For the same compound, the GI50 in the experiment with SF-268 was > 100 µM (inactive).
Consider `CCOC(=O)c1cc(Br)c(-c2onc(C)c2Br)[nH]1`, for which the GI50 with Hs-578T is 26.7 µM (inactive); with BT-549, 43 µM (inactive); with SK-MEL-28, > 100 µM (inactive); in the experiment on SNB-19, 24.9 µM (inactive); in the experiment on NCI-H23, 49.3 µM (inactive); in the experiment on EKVX it was 27.9 µM (inactive). For the same compound, the GI50 was greater than 100 µM in the experiment on HCT-15; > 100 µM (inactive) in the experiment on SW-620; 53.7 µM (inactive) in the experiment with HCC 2998; 43.1 µM (inactive) with SF-295; > 100 µM (inactive) in the experiment with DU-145; > 100 µM (inactive) with MOLT-4. For the same compound, the GI50 is > 100 µM (inactive) in the experiment with RPMI-8226; > 100 µM (inactive) in the experiment with MCF7; 19.1 µM (inactive) in the experiment on U-251; 48.1 µM (inactive) with HOP-92; > 100 µM (inactive) in the experiment on COLO 205; 41.4 µM (inactive) in the experiment on SF-268.
On to `O=c1oc2ccc([N+](=O)[O-])cc2cc1Br`, for which the GI50 in the experiment on Hs-578T, in the experiment on BT-549, with SK-MEL-28, in the experiment on SNB-19, in the experiment on NCI-H23 and in the experiment with EKVX was > 100 µM (inactive) each time. The GI50 in the experiment on SW-620 is > 100 µM (inactive); in the experiment on HCC 2998, > 100 µM (inactive); in the experiment on SF-295 it was > 100 µM (inactive); in the experiment on DU-145, > 100 µM (inactive); in the experiment with MOLT-4, > 100 µM (inactive); with RPMI-8226, 53.7 µM (inactive). In addition, the GI50 with TK-10 is > 100 µM (inactive); with MCF7, > 100 µM (inactive); in the experiment with NCI-H522, > 100 µM (inactive); in the experiment with U-251 it was > 100 µM (inactive); in the experiment on HOP-92, 86.3 µM (inactive); with COLO 205, > 100 µM (inactive). For the same compound, the GI50 in the experiment on SF-268 is 27.4 µM (inactive).
For the compound `CCOC(=O)/C=C1\Nc2ccccc2C12CCc1c([nH]c3ccccc13)C2C(=O)OCC` (stereo not given), the GI50 in the experiment with Hs-578T was 58.7 µM (inactive); in the experiment on BT-549, 52.2 µM (inactive); with SK-MEL-28, 61.2 µM (inactive); with SNB-19, > 100 µM (inactive); in the experiment with NCI-H23, 43.5 µM (inactive); with EKVX, 18.8 µM (inactive). Besides, the GI50 in the experiment on HCT-15 was 46.5 µM; with SW-620, 17.8 µM (inactive); in the experiment on HCC 2998 it was 59.3 µM (inactive); in the experiment with SF-295, 79.4 µM (inactive); in the experiment on DU-145, 98.2 µM (inactive); with MOLT-4, 8.79 µM (inactive). Moreover, the GI50 was 7.52 µM (inactive) in the experiment on RPMI-8226; 23.8 µM (inactive) in the experiment with TK-10; 17.5 µM (inactive) in the experiment on MCF7; 21.5 µM (inactive) with NCI-H522; > 100 µM (inactive) in the experiment with U-251; 4.66 µM (inactive) in the experiment on COLO 205. Further, the GI50 in the experiment with SF-268 was 30.1 µM (inactive).
Regarding `COc1cc(COC(=O)N2CCC2C(=O)O)c([N+](=O)[O-])cc1OC` (stereo not given), the GI50 in the experiment with Hs-578T, with BT-549, with SK-MEL-28, in the experiment on SNB-19, with NCI-H23 and in the experiment on EKVX was > 100 µM (inactive) throughout. For the same compound, the GI50 in the experiment on HCT-15 was greater than 100 µM; in the experiment with SW-620, > 100 µM (inactive); with HCC 2998, > 100 µM (inactive); in the experiment with SF-295, > 100 µM (inactive); in the experiment with DU-145, > 100 µM (inactive); in the experiment with MOLT-4, > 100 µM (inactive). The GI50 with RPMI-8226, in the experiment with TK-10, in the experiment with MCF7, in the experiment with U-251, in the experiment on HOP-92 and in the experiment on COLO 205 was > 100 µM (inactive) in each case. Besides, in the experiment with SF-268, the GI50 is > 100 µM (inactive).
On to `COc1cc(C(c2ccc3c(c2)OCO3)C2SCCCS2)cc(OC)c1OC` (stereo not given), for which the GI50 in the experiment on Hs-578T is 2.33 µM (inactive); in the experiment with BT-549 it was 8.79 µM (inactive); with SK-MEL-28 it was 4.91 µM (inactive); in the experiment with SNB-19, 1.86 µM (inactive); in the experiment on NCI-H23, 3.76 µM (inactive); in the experiment on EKVX, 2.79 µM (inactive). Besides, the GI50 was 2.02 µM in the experiment with HCT-15; 3.11 µM (inactive) with SW-620; 2.99 µM (inactive) in the experiment on HCC 2998; 1.94 µM (inactive) in the experiment with SF-295; 3.03 µM (inactive) in the experiment on DU-145; 2.87 µM (inactive) in the experiment with MOLT-4. In addition, the GI50 is 3.27 µM (inactive) in the experiment with RPMI-8226; 5.2 µM (inactive) in the experiment with TK-10; 2.62 µM (inactive) in the experiment with MCF7; 2.11 µM (inactive) in the experiment on NCI-H522; 3.01 µM (inactive) in the experiment on U-251; 1.63 µM (inactive) in the experiment on COLO 205. Further, the GI50 in the experiment with SF-268 is 6.21 µM (inactive).
As to `CC(NC(=O)C(Cc1ccccc1)NC(=O)C(Cc1ccccc1)NC(=O)OC(C)(C)C)C(=O)OCc1ccccc1` (stereo not drawn) (Boc-Phe-Phe-Ala-OBn; configuration not given here), the GI50 in the experiment on Hs-578T was 73.3 µM (inactive); with BT-549, > 100 µM (inactive); in the experiment with NCI-H23, > 100 µM (inactive); in the experiment with EKVX, > 100 µM (inactive); in the experiment with SW-620, > 100 µM (inactive); in the experiment with HCC 2998, 54.2 µM (inactive). Further, the GI50 in the experiment with SF-295 is 43.5 µM (inactive); with DU-145 it was > 100 µM (inactive); in the experiment on MOLT-4, 54.7 µM (inactive); in the experiment on RPMI-8226, 32.3 µM (inactive); in the experiment with TK-10, 76.2 µM (inactive); in the experiment with MCF7 it was 53.5 µM (inactive). The GI50 in the experiment with NCI-H522 was 68.1 µM (inactive); with U-251, 63.7 µM (inactive); in the experiment with HOP-92, 20.4 µM (inactive); with COLO 205, 65.3 µM (inactive); in the experiment with SF-268, > 100 µM (inactive).
As to `O=C(OCCN1CCCCCC1)C(c1ccsc1)C1CCCCC1` (stereo not given) [CETIEDIL CITRATE], the GI50 in the experiment with Hs-578T was 20.7 µM (inactive); with BT-549, 15.3 µM (inactive); in the experiment with SK-MEL-28, 20.3 µM (inactive); in the experiment with SNB-19, 18.7 µM (inactive); in the experiment on NCI-H23, 18.5 µM (inactive); with EKVX, 17.1 µM (inactive). Moreover, the GI50 was 14.4 µM in the experiment on HCT-15; 16.6 µM (inactive) in the experiment on SW-620; 15.2 µM (inactive) in the experiment with HCC 2998; 17.9 µM (inactive) in the experiment with SF-295; 16.6 µM (inactive) in the experiment on DU-145; 21.4 µM (inactive) with MOLT-4. In addition, the GI50 with RPMI-8226 was 13.5 µM (inactive); in the experiment with TK-10 it was 16 µM (inactive); in the experiment on MCF7, 16.7 µM (inactive); in the experiment with U-251, 17.2 µM (inactive); in the experiment on HOP-92 it was 13.9 µM (inactive); with COLO 205 it was 10.5 µM (inactive). Moreover, the GI50 in the experiment with SF-268 is 17.6 µM (inactive).

For the origin of these results see ChEMBL document CHEMBL1201862, “PubChem BioAssay data set” (2004).
